Laboratory results reported in PubChem BioAssay (NCI).
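Grown in 96-well plates, cells were treated for 48 hours with each compound at five concentrations. Insufficient inhibition: endpoint recorded as highest concentration tested. The concentration for 50% growth inhibition is given as GI50. TGI: total growth inhibition.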

Tests used:
Assay in all cases: DTP human tumour cell line panel, 48 h
CCRF-CEM leukemia = system: CCRF-CEM leukemia
HCC-2998 colon = system: HCC-2998 colon
HCT-116 colon = system: HCT-116 colon
HCT-15 colon = system: HCT-15 colon
HL-60(TB) leukemia = system: HL-60(TB) leukemia
MALME-3M melanoma = system: MALME-3M melanoma
OVCAR-5 ovarian = system: OVCAR-5 ovarian
RPMI-8226 leukemia = system: RPMI-8226 leukemia
SN12C renal = system: SN12C renal

SMILES	TGI (CCRF-CEM leukemia) [µM]	TGI (HCC-2998 colon) [µM]	TGI (HCT-116 colon) [µM]	TGI (HCT-15 colon) [µM]	TGI (HL-60(TB) leukemia) [µM]	TGI (MALME-3M melanoma) [µM]	TGI (OVCAR-5 ovarian) [µM]	TGI (RPMI-8226 leukemia) [µM]	TGI (SN12C renal) [µM]	GI50 (CCRF-CEM leukemia) [µM]	GI50 (HCC-2998 colon) [µM]	GI50 (HCT-116 colon) [µM]	GI50 (HCT-15 colon) [µM]	GI50 (OVCAR-5 ovarian) [µM]	GI50 (RPMI-8226 leukemia) [µM]	GI50 (SN12C renal) [µM]	GI50 (HL-60(TB) leukemia) [µM]	GI50 (MALME-3M melanoma) [µM]
N/N=C1\C(=O)N(c2ccc(Cl)c(Cl)c2)C(=O)C1C(=O)Nc1ccc(Cl)c(Cl)c1 (stereo not given)	> 100	> 100	> 100	> 100	> 100	> 100	> 100	> 100	> 100									
NNC(=O)C(=O)N/N=C1\CCCC1C(=O)CCC(=O)Nc1cccc(Cl)c1 (stereo not given)	> 100	> 100	> 100		> 100	> 100	> 100	> 100	> 100									
O=C1OC(=O)c2c1cc1cc3c(cc1c2-c1ccc2c(c1)OCO2)OCO3	> 100	> 100	> 100	> 100	> 100	> 100	> 100	> 100	> 100									
O=C(N/N=C/c1coc2ccc(Cl)cc2c1=O)c1cc(O)c(O)c(O)c1	> 100	35.3	70	79.7			74.9	> 100	65.4	33.2	15.9	19.3	21.5	24.6	28.5	24.1		
CCOC(=O)C(c1ccsc1)P(=O)(OCC)OCC (stereo not given)		33.8	25.7	37.4		60.8	37.7	> 100	30.1									
C=CCN=C1NC(=O)C(CC(=O)Nc2ccc([N+](=O)[O-])cc2[N+](=O)[O-])S1 (stereo not given)	> 100	> 100	> 100	> 100	> 100	> 100	> 100		> 100									
COC(=O)N1C=CC2=C(C)C3Nc4ccccc4C3C(C)=C2C1 (stereo not given)	15.9	11.9	2.57	33.6	11.9	13.1	> 100	5.87										
O=C1CC2=CCCC2O1 (stereo not given)	> 100	> 100	> 100	> 100	> 100	> 100		> 100	> 100									
COc1ccc(C2=NC(CO)[C@H](c3ccccc3)O2)cc1OC (stereo not given in full)	> 100	> 100	> 100	> 100	> 100	> 100	> 100		> 100									
CN(C)Cc1nsc(N(C)C)n1			> 100	> 100		> 100	> 100	> 100	> 100									
CC(C)(C)c1ccc(OCCCCCCCN2CCNCC2)cc1	4.1	3.22		3.38	3.3	3.17		4.25	7.62	1.62	1.7		1.64		1.83	2.73	1.45	1.6
NC(=O)c1c(-c2ccccc2)c(-c2ccccc2)cc2c(=O)c3ccccc3[nH]c12	> 100	> 100	35.9	> 100		37.1	> 100	> 100	> 100									
Cc1cc(N)c2cc(NC(=O)/C=C\c3ccccc3Cl)ccc2n1	0.448	1.74	0.416	3.27	3.31	3.89	2.69		2.69	0.204	0.485	0.208	1.77	1.33		1.36	1.67	2.05
COc1cc(/C=C2\CC3C4CC=C5C[C@@H](N6CCCC6)CC[C@]5(C)C4CC[C@]3(C)[C@H]2OC(C)=O)ccc1OCCCn1ccnc1 (stereo not given in full)	3.91	0.568	1.52	0.483	1.31		15.3	> 14	9.77	1.22	0.178	0.0938	0.135	7.15	0.343	1.24	0.393	
CCOC(=O)CCC(NC(=O)c1ccc(Oc2nc3cc(N)cc(N)c3nc2-c2ccccc2)cc1)C(=O)OCC (stereo not given)	> 100		28.7	> 100	95	35.2	> 100	> 100		12.4		15.1	34.3	96.8	> 100		31.5	18.5
C=CCC(NCc1ccccc1)c1cn(C(=O)OCC)c2ccccc12 (stereo not given)	42.1	28.3	25.7	55			44.6	35.8	60.9	19.4	14	13	20.9	16	13.1	25.7		
CN(C)c1ccc(-c2nc(N)nc3c2CCCC3)cc1	> 100	> 100	> 100		> 100	> 100	> 100	> 100	> 100									
